Assay results: article PMC2873968, “Novel protein kinase D inhibitors cause potent arrest in prostate cancer cell growth and motility” (BMC Chemical Biology, 2010)

What was measured:
[1] = target: T1, PKD1 (Homo sapiens, UniProt Q15139); test: In vitro radiometric PKD kinase assay; type: biochemical; set-up: purchased Biomol International; conditions: for IC50: radiometric kinase assay, mean ± S.E.M.; for fold greater selectivity toward PKD1: versus PKD2 and PKD3
T1 sequence (Q15139 1-912): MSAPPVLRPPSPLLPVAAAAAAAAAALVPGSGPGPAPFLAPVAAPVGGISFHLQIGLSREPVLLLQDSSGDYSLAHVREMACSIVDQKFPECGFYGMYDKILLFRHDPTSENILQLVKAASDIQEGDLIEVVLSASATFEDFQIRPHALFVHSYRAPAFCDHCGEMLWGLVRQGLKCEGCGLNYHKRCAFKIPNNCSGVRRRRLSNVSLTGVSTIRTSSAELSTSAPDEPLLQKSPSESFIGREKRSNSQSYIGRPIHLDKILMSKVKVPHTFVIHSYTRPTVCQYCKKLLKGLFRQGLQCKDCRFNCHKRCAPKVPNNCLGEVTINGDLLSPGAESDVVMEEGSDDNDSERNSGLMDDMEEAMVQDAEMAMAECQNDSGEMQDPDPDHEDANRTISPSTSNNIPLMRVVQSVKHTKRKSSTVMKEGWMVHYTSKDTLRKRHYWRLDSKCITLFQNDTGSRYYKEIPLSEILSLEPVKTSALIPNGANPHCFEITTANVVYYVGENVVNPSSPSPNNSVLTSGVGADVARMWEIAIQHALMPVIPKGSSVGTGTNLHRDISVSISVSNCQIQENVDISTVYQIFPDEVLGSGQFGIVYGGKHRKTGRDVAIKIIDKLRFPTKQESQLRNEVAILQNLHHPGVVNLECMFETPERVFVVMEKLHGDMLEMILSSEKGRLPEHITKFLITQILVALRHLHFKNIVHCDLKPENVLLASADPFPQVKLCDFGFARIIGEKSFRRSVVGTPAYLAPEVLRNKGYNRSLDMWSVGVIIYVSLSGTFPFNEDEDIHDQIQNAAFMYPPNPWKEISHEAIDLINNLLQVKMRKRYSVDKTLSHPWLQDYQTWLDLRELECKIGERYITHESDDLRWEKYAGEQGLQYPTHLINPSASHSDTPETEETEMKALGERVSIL
Protocol: In vitro radiometric kinase assays were conducted as previously described. Briefly, 1 μCi [γ-^32P] ATP (PerkinElmer Life Sciences), 70 μM ATP, 50 ng purified recombinant human PKD1 (Biomol International, Plymouth Meeting, PA), PKD2 (SignalChem, Richmond, BC, Canada), or CAMKIIα (Enzo Life Sciences) or 75 ng PKD3 (Enzo Life Sciences), and 2.5 μg syntide-2 (Sigma) in 50 μl kinase buffer containing 50 mM Tris-HCl, pH 7.5, 4 mM MgCl2, and 10 mM β-mercaptoethanol. For the CAMK assay, 0.5 mM CaCl2 and 30 ng/μl calmodulin were pre-incubated for 10 min on ice, and then added to each reaction mixture. The reaction was incubated at 30°C for 10 min, and 25 μl of the reaction mixture was then spotted onto Whatman P81 filter paper (Whatman Inc., Clifton, NJ). The filter papers were washed 3 times in 0.5% phosphoric acid, air-dried, and counted using a Beckman LS6500 multipurpose scintillation counter (Beckman).
The in vitro inhibitory activities of the novel compounds toward PKD were determined using radiometric PKD kinase activity assays. Recombinant human PKD1, -2, or -3 was incubated with the substrate, syntide-2, in the presence of 10 different concentrations of each compound. IC50 values were determined for each compound by plotting percent PKD activity versus compound concentration for each point.
A-E, inhibition of recombinant human PKD1 in vitro. […] A 10-point concentration curve was generated for each compound for IC50 determination. Each IC50 was determined as the mean ± S.E.M. of three independent experiments with triplicate determinations at each concentration in each experiment. Representative graphs are shown.

[2] = MTT cytotoxicity assay; conditions: human
Protocol: PC3 cells were seeded into 96-well plates (3000 cells/well) and allowed to attach overnight. Cells were then incubated in media containing 0.3-100 μM inhibitors for 72 h. 3-(4,5-Dimethylthiazol-2-yl)-2,5-diphenyltetrazolium bromide methyl thiazolyl tetrazolium (MTT) solution was prepared at 2 mg/ml concentration in PBS, sterilized by filtering through a 0.2 μm filter, and wrapped in foil to protect from light. 50 μl MTT solution was added to each well and incubated for 4 h at 37°C. Then, media was removed and 200 μl DMSO was added to each well. The plate was mixed for 5 min and the optical density was determined at 570 nm.
PC3 cells were seeded into 96-well plates (3000 cells/well) and were then incubated in media containing 0.3-100 μM inhibitors for 72 h. MTT solution was added to each well and incubated for 4 h. Optical density was read at 570 nm to determine cell viability. The EC50 was determined as the mean ± S.E.M. of three independent experiments for each compound.

[3] = test system: DU145 cells; test: Matrigel invasion assay; type: cell-based; conditions: 10 μM, 22 h
Protocol: DU145 cells (8.0 × 10^4 cells/ml) in RPMI containing 0.1% fetal bovine serum (FBS) were seeded into the top chamber of BioCoat control inserts (pore size 8 μm) or BioCoat Matrigel invasion inserts with Matrigel-coated filters (BD Pharmingen). To stimulate invasion, media in the lower chamber of the insert contained 20% FBS. […] After incubation, noninvasive cells were removed using a cotton swab, and invasive cells were fixed in 100% methanol and stained with 1% crystal violet. After staining, cells were counted under a microscope (200× magnification). The percentage invasion was determined by cell counts in 5 fields of the number of cells that invaded the Matrigel matrix relative to the number of cells that migrated through the control insert.
After 22 hours, noninvasive cells were removed and invasive cells were fixed in 100% methanol, stained in […] crystal violet solution, and photographed. The number of cells that invaded the Matrigel matrix was determined by cell counts in 5 fields relative to the number of cells that migrated through the control insert. The data shown is the mean ± S.E.M. of two independent experiments. Statistical significance versus the control DMSO was determined by unpaired t-test. ***, p < 0.001.

| Compound | fold greater inhibition of PKD1 than the parental compound CID755673 [1] | IC50 [1] | fold greater selectivity toward PKD1 [1] | EC50 at 72 h ([2]; PC3 cells) | percent invasion [3] | EC50 at 72 h [2] | inhibition of invasion (in words) [3] | fold reduction of potency for PKD1 ([1]; versus kb-NB142-70) |
| --- | --- | --- | --- | --- | --- | --- | --- | --- |
| O=C1NCCSc2c1sc1ccc(O)cc21 [kb-NB142-70] | 7 fold | 0.0283 ± 0.0023 µM | about 2 fold | 8.03 µM | 10% | – | – | – |
| O=C1NCCSc2c1sc1ccc(O)c(I)c21 [kb-NB165-31] | – | 0.114 ± 0.0239 µM | – | – | – | 31.9 µM | levels similar to the parental compound | – |
| O=C1NCCCc2c1oc1ccc(O)cc21 [CID755673, 7-Hydroxy-2,3,4,5-tetrahydro-[1]benzoxolo[2,3-c]azepin-1-one] | – | 0.182 ± 0.027 µM | – | 320 µM | – | – | significantly inhibited invasion | – |
| COc1ccc2sc3c(c2c1)SCCNC3=O [kb-NB165-09] | – | 0.0825 ± 0.0046 µM | – | 50 µM | 10% | – | – | – |
| O=C1NCCCSc2c1sc1ccc(O)cc21 [kb-NB165-92] | – | 0.111 ± 0.006 µM | – | – | – | 78.3 µM | levels similar to the parental compound | 2-4 fold |
| COc1ccc2sc3c(c2c1)SCCCNC3=O [kb-NB184-02] | – | 0.193 ± 0.0274 µM | about 2 fold | – | – | 33.8 µM | levels similar to the parental compound | – |
